Results from US20170165283A1, “USE OF BETA-NICOTINAMIDE MONONUCLEOTIDE IN PREPARATION OF HEALTH-CARE PRODUCTS FOR PREVENTING AND TREATING ARTERIOSCLEROSIS AND CARDIO-CEREBROVASCULAR DISEASES, AND HEALTH-CARE PRODUCT CONTAINING THE SAME” (BONTAC BIO-ENGINEERING (SHENZHEN) CO., LTD, priority 2015, published 2017).

Legend:
[1] = tested on: guinea pigs fed on high-fat diet (arteriosclerosis, lesion of the aorta); assay: Aortic lesion area (Sudan IV staining) in guinea pigs fed on high-fat diet; type: in vivo; conditions: end of week 7, x±s
Experimental: 70 SPF healthy guinea pigs (female:male 1:1) having a body weight of 250-300 g, were assigned to 7 groups at random, each group having 10 animals. The groups include (1) a normal control group, fed on basal diet, and allowed to free access to water during experiment;
(2) a high fat control group, fed on high-fat diet, and allowed to free access to water during experiment;
(3) a high fat prevention group, fed on high-fat diet, dosed with 50 mg NMN/kg body weight every day by gavage, and allowed to free access to water during experiment;
(4) a low-dose NMN group, fed on high-fat diet, dosed with 0.5 mg NMN/kg body weight every day by gavage from week 6, and allowed to free access to water during experiment;
(5) a medium-dose NMN group, fed on high-fat diet, dosed with 50 mg NMN/kg body weight every day by gavage from week 6, and allowed to free access to water during experiment;
(6) a high-dose NMN group, fed on high-fat diet, dosed with 100 mg NMN/kg body weight every day by gavage from week 6, and allowed to free access to water during experiment; and (7) a NMN+NR group, fed on high-fat diet, dosed with 50 mg NMN/kg body weight and 5 mg NR/kg body weight every day by gavage from week 6, and allowed to free access to water during experiment.
The formulation of the high-fat diet includes 75% basal diet, 5% cholesterol, and 20% lard oil.
At the end of week 7, all the experimental animals was fasted (allowed to access to water) for 12 hrs and then sacrificed. The aorta was isolated, dissected longitudinally along the midline of the anterior wall, and stained with Sudan IV. […] The lesion area pathologically measured and the total endangium area were quantified, and the degree of arteriosclerosis was expressed by percentages of the lesion area relative to the total endangium area of the aorta.
Statistical analysis: All the experimental data is analyzed by SPSS13.0 Statistics software. The measurement data is expressed as x±s, and t test is applied to check the statistical significance. Where P <0.05, there is statistical significance.

[2] = tested on: patients diagnosed as having cardio-cerebrovascular diseases resulting from arteriosclerosis; assay: Clinical trial in patients with cardio-cerebrovascular diseases resulting from arteriosclerosis; type: in vivo, human; conditions: Group A: oral NMN 10 mg/kg body weight every day; for Total effective rate: excluding the withdrawing patients
Experimental: 200 patients (male:female 1:1, aged 35-76 years and 55 years on average, and having a course of disease of the shortest 2 years, the longest 7 years, and 4.8 years on average) diagnosed as having cardio-cerebrovascular diseases resulting from arteriosclerosis were selected at random as subjects for clinical observation. The patients were assigned to a group A and a group B at random, each group having 100 patients.
Group A: The patients were orally administered with NMN at a dosage of 10 mg/kg body weight before or after meals every day, and the diet was controlled as desired.
Group B: The patients were orally administered with NMN at a dosage of 10 mg/kg body weight and with NR at a dosage of 2 mg/kg body weight before or after meals every day, and the diet was controlled as desired.
(1) Obvious effectiveness: The health is built up, the body is powerful, the blood lipid and blood pressure drop to normal levels, the palpitation, chest pain, chest tightness, headache, dizziness, decreased vision, decreased memory, insomnia and dreamful sleep, and other clinical symptoms are obvious alleviated.
(2) Effectiveness: The health is built up, the blood lipid and blood pressure drop slightly, the palpitation, chest pain, chest tightness, headache, dizziness, decreased vision, decreased memory, insomnia and dreamful sleep, and other clinical symptoms are alleviated to some extent.
(3) Ineffectiveness: There is no obvious improvement in the clinical symptoms.

NC(=O)c1ccc[n+]([C@@H]2O[C@H](COP(=O)([O-])O)[C@@H](O)[C@H]2O)c1 [NMN, β-nicotinamide mononucleotide] was tested, and the “Rate of lesion area of aorta (%)” value ([1]; high fat prevention group: high-fat diet, 50 mg NMN/kg body weight every day by gavage, n=10) was 4 ± 1%, the “Rate of lesion area of aorta (%)” value ([1]; high-dose group: high-fat diet, 100 mg NMN/kg body weight every day by gavage from week 6) was 12 ± 3% and the “Rate of lesion area of aorta (%)” value ([1]; low-dose group: high-fat diet, 0.5 mg NMN/kg body weight every day by gavage from week 6) was 59 ± 4%. For the same compound, the “Rate of lesion area of aorta (%)” value ([1]; medium-dose group: high-fat diet, 50 mg NMN/kg body weight every day by gavage from week 6) was 23 ± 2%, the “Time after administration at which patients with mild disease are cured” value [2] was 7 days and the “Patients showing obvious effectiveness” value ([2]; after 1 month) was 67 out of 100 patients. For the same compound, the Patients showing effectiveness ([2]; after 1 month, 100 patients) was 28 patients, the Patients showing ineffectiveness ([2]; after 1 month, 100 patients) was 4 patients and the Total effective rate ([2]; after 1 month) was 96%. The Total effective rate ([2]; after 1 month, listed as β-nicotinamide mononucleotide) was “up to 96%”.
